{
  "source": "patent EP2468280A1",
  "about": "“Use of prokineticin 1 receptor agonists to promote the differentiation of epicardin+ progenitor cells” (Université de Strasbourg, priority 2010, dated 2012)",
  "key": {"GFP-PKR1": {"molecular_target": "T1, GFP-PKR1 (Homo sapiens, UniProt Q8TCW9)", "T1 construct": "expressed in transfected cells; host or cells: CHO-K1 cells, transient transfection with Lipofectamine2000", "T1 sequence (Q8TCW9 whole entry)": "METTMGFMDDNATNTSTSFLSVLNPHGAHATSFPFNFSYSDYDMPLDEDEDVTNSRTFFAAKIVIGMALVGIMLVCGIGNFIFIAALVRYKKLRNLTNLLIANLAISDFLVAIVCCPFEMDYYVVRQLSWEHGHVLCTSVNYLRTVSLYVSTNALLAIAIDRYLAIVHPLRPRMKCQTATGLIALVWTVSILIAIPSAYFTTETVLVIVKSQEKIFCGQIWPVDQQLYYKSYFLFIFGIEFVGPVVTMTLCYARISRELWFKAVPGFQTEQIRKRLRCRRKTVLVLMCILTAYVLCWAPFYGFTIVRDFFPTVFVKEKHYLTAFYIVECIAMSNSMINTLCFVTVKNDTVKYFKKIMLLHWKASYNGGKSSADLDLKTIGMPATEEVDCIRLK", "experiment": "PKR1 internalization in CHO-K1 cells transfected with GFP-PKR1", "type": "cell-based", "settings": "CHO-K1 cells expressing GFP-PKR1, 48h after transfection, 37°C, 20 min imaging", "experimental": "The capacity of agonist compounds to induce internalization of PKR1 was assessed. Therefore, CHO-K1 cells transfected with a plasmid encoding GFP-PKR1 (Green Fluorescent Protein-PKR1), in the presence of Lipofectamine2000 (Invitrogen), were used. Cells were stimulated, 48h after transfection, with or without agonist compound, at 37°C. GFP is a fluorescent protein fusion (26.9 kDa) which has a major excitation peak at a wavelength of 396 nm and a minor one at 472 nm. Its emission peak is at 504 nm which is in the lower green portion of the visible spectrum. Fluorescence allowed tracking the localization of PKR1 after stimulation by the agonist (membrane or subcellular). Cells were seeded in glass-bottom coated with polyL-lysine and receptor studies were performed in the presence of various PKR1-ligands. Samples were observed under a Leica confocal microscope (SP2 AOBS MP) with objective 63× at 37°C. Images were automatically recorded during 20 min, with increasing time intervals to avoid bleaching effects because of repetitive scanning. Reconstituted videos contained 42 images and lasted 2 second."}, "[1]": {"system": "Coronary endothelial cells (H5V cells)", "experiment": "In vitro angiogenesis, tube-like formation on Matrigel", "type": "cell-based", "settings": "serum free medium, 24h", "experimental": "Coronary endothelial cells (H5V cells) were maintained in DMEM supplemented with 10% heat inactivated Fetal Calf Serum (FCS), glutamine (1mM) under 5% CO2 at 37°C.\nIn order to evaluate the potential angiogenic activity of the non peptide PKR1 agonists, the test of Growth Factor Reduced Matrigel (GFR Matrigel) 24 well plate was performed. Matrigel leads to the differentiation of many cell types and induces the formation and organization of endothelial cells into capillary tubules. Twenty-four-well culture plates were coated with Matrigel and endothelial cells (H5V) were trypsin-harvested and seeded onto the coated plates at 10^5 cells per well in the serum free assay medium with PKR1 agonists, IS1 and prokineticin-2, and incubated at 37°C for 24h. Tube formation as two dimensional branched structures were observed using an inverted phase contrast microscope (Zeiss), and the number of branching points were quantified in per well from each sample. Each experiment was repeated at least three times. Images were captured at a magnification of X10 with a digital microscope camera system (Urayama K et al., 2007)."}, "PKR1": {"system": "PKR1", "experiment": "Measurement of intracellular calcium in CHO-K1-PKR1 cells (Fluo 4-AM, confocal microscope)", "type": "cell-based", "settings": "CHO-K1 cells infected with adenovirus carrying PKR1 cDNA, 48h after infection, 37°C", "experimental": "CHO-K1 (Chinese Hamster Ovary) cells were infected with an adenovirus carrying PKR1 cDNA. Cells were then stimulated, 48h after infection, with or without IS1 agonists, at 37°C.\nCalcium imaging was conducted essentially as previously described (Horinouchi et al., 2007) In brief, Intracellular free calcium [Ca^2+]i was measured with the fluorescent Ca^2+ indicator dye Fluo 4-AM, the membrane-permeant acetoxymethyl ester form of Fluo 4 (Invitrogen). Changes in [Ca^2+]i were determined from variations in the fluorescence intensity of Fluo 4-AM. Briefly, trypsinized CHO-K1-PKR1 cells were seeded onto glass bottom culture dishes (MatTek, MA, USA) for 24 h. […] The fluorescence in the cells was excited at a wavelength of 488 nm and a series of images (total exposure time: 300 s) were acquired at 0.5s intervals at emission wavelength 518 nm. Data are presented as the fluorescence intensity of 3 randomly chosen cells within a randomly selected 40× field. To evaluate the effect of IS1 compound on [Ca^2+]i in CHO-K-PKR1, the maximum change in fluorescence intensity upon addition of IS1 was measured and normalized to the baseline fluorescence obtained before IS 1 addition."}, "cEPPC": {"system": "cEPPC", "experiment": "Cardiomyocyte differentiation of cEPPC (contractility by time lapse microscopy, troponin immunostaining)", "type": "cell-based, C57BL/B6 mice", "settings": "beta adrenergic stimuli, isoproterenol 25 nM", "experimental": "Hearts were removed from P1 neonate C57BL/B6 mice or PKR1 null mutant mice, cut into pieces (approximately 1 mm^3), rinsed in PBS to remove excess blood and plated onto 0.1 % gelatin petri dish in DMEM containing GlutaMax, 4.5 g /L glucose, penicillin, streptomycin and 15 % fetal calf serum. Cultures were maintained with minimum disturbance to allow explants to adhere. All cells were maintained at 37°C in a humidified air 5% CO2 atmosphere. After 4 days explants were removed and cells were gently washed and fresh medium with DMEM containing GlutaMax, 4.5 g /L glucose, penicillin, streptomycin and 10 % fetal calf serum serum was added. The cells were cultured during 10 days and trypsinized for experimentation.\nFor cardiomyogenesis, cells were plated at 2x10^4 onto 1% gelatin coated culture chamber in DMEM containing GlutaMax, 4.5 g /L glucose, penicillin, streptomycin and 10 % fetal calf serum. The cells were maintained in culture during six days and medium were change every 2 days. After 6 days, cardiomyocyte differentiation can be induced using culture medium supplemented with 1µM dexamethasone, 50µg/ml ascorbic acid, 10mM glycerophosphate without or with 10 nM of prokineticin-2. The medium was change every 2 days during 36 days. […]\nCells were fixed in 3,7% formaldehyde at 4°C 1 hours. […] The immunofluorescence was detected by Leica TCSNT fluorescent microscope."}},
  "data": [
    {"molecule": "O=C(NCc1cccnc1)/C(=C\\c1ccco1)NC(=O)c1ccccc1", "note": "[IS1]", "values": [
      {"measurement": "PKR1 internalization", "setting": "GFP-PKR1", "value": "specifically interacts with PKR1 and induces its internalization"},
      {"measurement": "in vitro angiogenesis (tube-like formation of the endothelial cells on Matrigel)", "setting": "[1]", "value": "Induction of in vitro angiogenesis"},
      {"measurement": "activation of PKR1 signalling pathway (intracellular calcium release)", "setting": "PKR1", "value": "able to activate the PKR1 signalling pathway"}
    ]},
    {"molecule": "CC(C)NCC(O)c1ccc(O)c(O)c1", "note": "(stereo not shown) [isoproterenol, Isoproterenol]", "values": [
      {"measurement": "beating frequence of cardiomyocytes induced from cEPPC", "setting": "cEPPC", "value": "beating frequence is increased"}
    ]}
  ]
}
